PMC12396409, “Screening and hit evaluation of a microbial metabolite library against the pathogenic Plasmodium falciparum and Toxoplasma gondii parasites” (International Journal for Parasitology: Drugs and Drug …, 2025)
Where two headings read alike, the source gives them in different places.

Columns and labels:
[1] = test system: P. falciparum 3D7 parasites; experiment: P. falciparum growth inhibition assay, 2-cycle (120 h treatment), delayed-death screen and dose-response; assay type: cell-based, Plasmodium falciparum; details: for activity at 2 µg/mL: Plasmodium falciparum
[2] = test system: P. falciparum 3D7 parasites; experiment: P. falciparum growth inhibition assay, 1-cycle (72 h treatment), SYBR DNA staining (library screen at 2 μg/mL and dose-response); assay type: cell-based, Plasmodium falciparum; details: for activity at 2 µg/mL: Plasmodium falciparum
[3] = test system: T. gondii RH strain (RH-Tub-eYFP) tachyzoites; experiment: microbe, parasite or virus in culture; assay type: cell-based, Toxoplasma gondii; details: 72 h, 72 h; for percent parasite growth at 2 µg/mL: Toxoplasma gondii
[4] = 3D7, 120 h, P. falciparum, 120 h, screen at 2 μg/mL, replicate 1, read-out: Pf_120h_%Growth_Rep1
[5] = 3D7, 120 h, P. falciparum, 120 h, screen at 2 μg/mL, replicate 2, read-out: Pf_120h_%Growth_Rep2
[6] = 3D7, 72 h, P. falciparum, 72 h, screen at 2 μg/mL, replicate 1, read-out: Pf_72h_%Growth_Rep1
[7] = 3D7, 72 h, P. falciparum, 72 h, screen at 2 μg/mL, replicate 2, read-out: Pf_72h_%Growth_Rep2
[8] = T. gondii, screen at 2 μg/mL, replicate 1, read-out: Tg_72h_%Growth_Rep1
[9] = T. gondii, screen at 2 μg/mL, replicate 2, read-out: Tg_72h_%Growth_Rep2
[10] = P. falciparum 3D7, 120 h, parasite screen at 2 μg/mL, % growth, replicate 1
[11] = P. falciparum 3D7, 120 h, parasite screen at 2 μg/mL, % growth, replicate 2
[12] = P. falciparum 3D7, 72 h, parasite screen at 2 μg/mL, % growth, replicate 1
[13] = P. falciparum 3D7, 72 h, parasite screen at 2 μg/mL, % growth, replicate 2
[14] = T. gondii, parasite screen at 2 μg/mL, % growth, replicate 1
[15] = T. gondii, parasite screen at 2 μg/mL, % growth, replicate 2
[16] = P. falciparum, 120 h, parasite screen 2 μg/mL, % growth, replicate 1
[17] = P. falciparum, 120 h, parasite screen 2 μg/mL, % growth, replicate 2
[18] = P. falciparum, 72 h, parasite screen 2 μg/mL, % growth, replicate 1
[19] = P. falciparum, 72 h, parasite screen 2 μg/mL, % growth, replicate 2
[20] = T. gondii, parasite screen 2 μg/mL, % growth, replicate 1
[21] = T. gondii, parasite screen 2 μg/mL, % growth, replicate 2

CC=C1CN(C)C2Cc3c([nH]c4ccccc34)C(c3cc4[nH]c5c(c4cc3OC)CCN3CC4CC(CC)C3C5(C(=O)OC)C4)CC1C2C(=O)OC (stereo not drawn) [Voacamine]
activity at 2 µg/mL [1, 4]: 106% | activity at 2 µg/mL [1, 5]: 45.2% | activity at 2 µg/mL [2, 6]: 56.2% | activity at 2 µg/mL [2, 7]: 62% | percent parasite growth at 2 µg/mL [3, 8]: 97% | percent parasite growth at 2 µg/mL [3, 9]: 101%

COC1=CC(=O)c2c(n(C)c3occc3c2=O)C1=O [BIA-M1955]
Pf_120h_%Growth_Rep1 [1, 10]: 53.96% | Pf_120h_%Growth_Rep2 [1, 11]: 26.88% | Pf_72h_%Growth_Rep1 [2, 12]: 39.08% | Pf_72h_%Growth_Rep2 [2, 13]: 29.78% | Tg_72h_%Growth_Rep1 [3, 14]: 248.99% | Tg_72h_%Growth_Rep2 [3, 15]: 112.97%

CN1C(=O)[C@@]23C[C@]4([C@]56C[C@@]78SS[C@@](CO)(C(=O)N7[C@H]5Nc5ccccc56)N(C)C8=O)c5ccccc5N[C@@H]4N2C(=O)[C@]1(CO)SS3 [Chaetocin]
activity at 2 µg/mL [1, 4]: 16.4% | activity at 2 µg/mL [1, 5]: 23.8% | activity at 2 µg/mL [2, 6]: 10.9% | activity at 2 µg/mL [2, 7]: 11.2% | percent parasite growth at 2 µg/mL [3, 8]: 0.84% | percent parasite growth at 2 µg/mL [3, 9]: 2.33%

COc1cc(-c2ccc(O)cc2)c(OC)c(O)c1-c1ccc(O)cc1 [Terphenyllin]
activity at 2 µg/mL ([1]; 3D7, P. falciparum, 120 h, screen at 2 μg/mL, replicate 1, read-out: Pf_120h_%Growth_Rep1): 179% | activity at 2 µg/mL ([1]; 3D7, P. falciparum, 120 h, screen at 2 μg/mL, replicate 2, read-out: Pf_120h_%Growth_Rep2): 102% | activity at 2 µg/mL ([2]; 3D7, P. falciparum, 72 h, screen at 2 μg/mL, replicate 1, read-out: Pf_72h_%Growth_Rep1): 87.2% | activity at 2 µg/mL ([2]; 3D7, P. falciparum, 72 h, screen at 2 μg/mL, replicate 2, read-out: Pf_72h_%Growth_Rep2): 91.8% | percent parasite growth at 2 µg/mL [3, 8]: 84.9% | percent parasite growth at 2 µg/mL [3, 9]: 103%

CC=C(C)c1c(Cl)c(OC)c(C)c2c1Oc1c(Cl)c(O)c(Cl)c(C)c1C(=O)O2 [BIA-N1157]
Pf_120h_%Growth_Rep1 [1, 10]: 89.90% | Pf_120h_%Growth_Rep2 [1, 11]: 141.00% | Pf_72h_%Growth_Rep1 [2, 12]: 86.70% | Pf_72h_%Growth_Rep2 [2, 13]: 91.20% | Tg_72h_%Growth_Rep1 [3, 14]: 96.79% | Tg_72h_%Growth_Rep2 [3, 15]: 78.56%

C[C@@H]1CC[C@H](O)/C=C/C(=O)O[C@H](C)CC[C@H](O)/C=C/C(=O)O1 [Pyrenophorol]
Pf_120h_%Growth_Rep1 [1, 16]: 102.30% | Pf_120h_%Growth_Rep2 [1, 17]: 75.99% | Pf_72h_%Growth_Rep1 [2, 18]: 90.24% | Pf_72h_%Growth_Rep2 [2, 19]: 103.36% | Tg_72h_%Growth_Rep1 [3, 20]: 105.85% | Tg_72h_%Growth_Rep2 [3, 21]: 74.43%

C=CCNC1=C2C[C@@H](C)C[C@H](OC)[C@H](O)[C@@H](C)/C=C(\C)[C@H](OC(N)=O)[C@@H](OC)/C=C\C=C(/C)C(=O)NC(=CC1=O)C2=O [Allylamino-17-demethoxygeldanamycin, 17-]
Pf_120h_%Growth_Rep1 ([1]; library screen at 2 μg/mL, 120 h, % growth, replicate 1): 19.67% | Pf_120h_%Growth_Rep2 ([1]; library screen at 2 μg/mL, 120 h, % growth, replicate 2): 7.18% | Pf_72h_%Growth_Rep1 ([2]; library screen at 2 μg/mL, 72 h, % growth, replicate 1): 14.05% | Pf_72h_%Growth_Rep2 ([2]; library screen at 2 μg/mL, 72 h, % growth, replicate 2): 5.13% | Tg_72h_%Growth_Rep1 ([3]; library screen at 2 μg/mL, % growth, replicate 1): -1.02% | Tg_72h_%Growth_Rep2 ([3]; library screen at 2 μg/mL, % growth, replicate 2): -0.21%

CCC(C)(C)C(=O)O[C@H]1C[C@@H](C)C=C2C=C[C@H](C)[C@H](CC[C@@H]3C[C@@H](O)CC(=O)O3)[C@H]21 [Simvastatin]
activity at 2 µg/mL ([1]; 3D7, 120 h, P. falciparum, 120 h, parasite screen 2 μg/mL, % growth, replicate 1, read-out: Pf_120h_%Growth_Rep1): 83.8% | activity at 2 µg/mL ([1]; 3D7, 120 h, P. falciparum, 120 h, parasite screen 2 μg/mL, % growth, replicate 2, read-out: Pf_120h_%Growth_Rep2): 70.2% | activity at 2 µg/mL ([2]; 3D7, 72 h, P. falciparum, 72 h, parasite screen 2 μg/mL, % growth, replicate 1, read-out: Pf_72h_%Growth_Rep1): 83.1% | activity at 2 µg/mL ([2]; 3D7, 72 h, P. falciparum, 72 h, parasite screen 2 μg/mL, % growth, replicate 2, read-out: Pf_72h_%Growth_Rep2): 118% | percent parasite growth at 2 µg/mL ([3]; T. gondii, parasite screen 2 μg/mL, % growth, replicate 1, read-out: Tg_72h_%Growth_Rep1): 93.5% | percent parasite growth at 2 µg/mL ([3]; T. gondii, parasite screen 2 μg/mL, % growth, replicate 2, read-out: Tg_72h_%Growth_Rep2): 71.4%

C=C(C)[C@@H]1CC[C@]2(C)CC[C@]3(C)[C@H](CC[C@@H]4[C@@]5(C)CC[C@H](O)C(C)(C)[C@@H]5CC[C@]43C)[C@@H]12 [BIA-L1759]
Pf_120h_%Growth_Rep1 ([1]; P. falciparum 3D7, 120 h, library screen at 2 μg/mL, % growth, replicate 1): 99.08% | Pf_120h_%Growth_Rep2 ([1]; P. falciparum 3D7, 120 h, library screen at 2 μg/mL, % growth, replicate 2): 111.54% | Pf_72h_%Growth_Rep1 ([2]; P. falciparum 3D7, 72 h, library screen at 2 μg/mL, % growth, replicate 1): 81.82% | Pf_72h_%Growth_Rep2 ([2]; P. falciparum 3D7, 72 h, library screen at 2 μg/mL, % growth, replicate 2): 111.85% | Tg_72h_%Growth_Rep1 ([3]; T. gondii RH, library screen at 2 μg/mL, % growth, replicate 1): 110.92% | Tg_72h_%Growth_Rep2 ([3]; T. gondii RH, library screen at 2 μg/mL, % growth, replicate 2): 91.52%

CC(=O)O[C@H]1C[C@]2(C)[C@H]3CC[C@]4(C)Oc5oc(C)cc(=O)c5C[C@H]4[C@]3(C)CC[C@H]2C(C)(C)[C@H]1OC(C)=O [Sartorypyrone B]
Pf_120h_%Growth_Rep1 [1, 16]: 68.83% | Pf_120h_%Growth_Rep2 [1, 17]: 125.68% | Pf_72h_%Growth_Rep1 [2, 18]: 77.80% | Pf_72h_%Growth_Rep2 [2, 19]: 111.47% | Tg_72h_%Growth_Rep1 [3, 20]: 114.72% | Tg_72h_%Growth_Rep2 [3, 21]: 87.54%
